For data set [1], the system named is bicistronic HCV replicon (replicon RNA, GenBank Accession No. AJ242654). The data set is described as follows: HCV Replicon Assay. The conditions noted are these: Hepatitis C virus, 72 h, read-out: Replicon IC50. The format is cell-based.

Where only a bound is given, the exact number is not on record here.

For the molecule `C[C@H](NS(=O)(=O)c1ccc(-c2c(C#N)c3cc(C(F)(F)F)ccc3n2-c2cnccn2)nc1)C(F)(F)F` [compound 897, 6-[3-cyano-1-(pyrazin-2-yl)-5-(trifluoromethyl)-1H-indol-2-yl]-N-[(2S)-1,1,1-trifluoropropan-2-yl]pyridine-3-sulfonamide], the melting point lay in the range of 255 to 258 °C. Moreover, the half-inhibitory concentration (IC50) in data set [1] was < 500 nM.

Regarding `C[C@H](NS(=O)(=O)c1ccc(-c2c(C#N)c3ccc(C4CCC4)cc3n2C2CCC2)nc1)C1CC1` [compound 263, 6-(3-cyano-1,6-dicyclobutyl-1H-indol-2-yl)-N-[(1S)-1-cyclopropylethyl]pyridine-3-sulfonamide], the melting point lay within 124 to 126 °C. In addition, in data set [1], the IC50 was < 500 nM.

Molecule `CCc1cc2c(cc1F)c(C#N)c(-c1ccc(S(=O)(=O)NC3(C(F)(F)F)CC3)cn1)n2C1CCC1` [compound 642, 6-(3-cyano-1-cyclobutyl-6-ethyl-5-fluoro-1H-indol-2-yl)-N-[1-(trifluoromethyl)cyclopropyl]pyridine-3-sulfonamide] showed a melting point of 203 to 203.5 °C. In addition, the IC50 in data set [1] was < 500 nM.

The molecule `CC(C)NS(=O)(=O)c1cnc(-c2c(C#N)c3ccc(C4CCC4)cc3n2C2CCC2)nc1` [compound 265, 2-(3-cyano-1,6-dicyclobutyl-1H-indol-2-yl)-N-(propan-2-yl)pyrimidine-5-sulfonamide] yielded a melting point of 192 to 194 °C. In data set [1], the 50% inhibitory concentration (IC50) lay within 500 to 2000 nM.

Turning to `Cc1ccc2c(c1)c(C#N)c(-c1ccc(S(=O)(=O)N[C@@H](C)C(F)(F)F)cn1)n2CC1CC1` [compound 372, 6-[3-cyano-1-(cyclopropylmethyl)-5-methyl-1H-indol-2-yl]-N-[(2S)-1,1,1-trifluoropropan-2-yl]pyridine-3-sulfonamide], the melting point lay within 175 to 180 °C. For the same molecule, the IC50 in data set [1] is < 500 nM.

For `CCc1ccc2c(C#N)c(-c3ccc(S(=O)(=O)NC(CF)CF)cn3)n(C3CCCC3)c2c1` [compound 310, 6-(3-cyano-1-cyclopentyl-6-ethyl-1H-indol-2-yl)-N-(1,3-difluoropropan-2-yl)pyridine-3-sulfonamide], the melting point lay in the range of 204.5 to 205 °C. For the same molecule, the half-maximal inhibitory concentration (IC50) in data set [1] was < 500 nM.

Consider `Cc1cc2c(cc1F)c(C(N)=O)c(-c1ccc(S(=O)(=O)N[C@@H](C)C(F)(F)F)cn1)n2-c1ccccn1` [compound 874, 5-fluoro-6-methyl-1-(pyridin-2-yl)-2-(5-{[(2S)-1,1,1-trifluoropropan-2-yl]sulfamoyl}pyridin-2-yl)-1H-indole-3-carboxamide], for which the melting point was 142 to 148 °C. For the same molecule, the IC50 in data set [1] was < 500 nM.

Consider `CC(C)(C)NS(=O)(=O)c1ccc(-c2c(C#N)c3cc(F)c(C4CC4)cc3n2-c2ccccc2)nc1` [compound 1117, N-tert-butyl-6-(3-cyano-6-cyclopropyl-5-fluoro-1-phenyl-1H-indol-2-yl)pyridine-3-sulfonamide], for which the melting point is 219.2 to 220.8 °C. For the same molecule, the IC50 in data set [1] is < 500 nM.

The molecule `Cc1ccc2c(C#N)c(-c3ncc(S(=O)(=O)NC(C)C)cn3)n(C3CCCCC3)c2c1` [compound 98, 2-(3-cyano-1-cyclohexyl-6-methyl-1H-indol-2-yl)-N-(propan-2-yl)pyrimidine-5-sulfonamide] had a melting point of 196 to 201 °C. Also, the IC50 in data set [1] is < 500 nM.

As to `CC(C)n1c(-c2ccc(S(=O)(=O)N[C@@H](C)C(F)(F)F)cn2)c(C#N)c2cc(F)c(OC(F)F)cc21` [compound 936, 6-[3-cyano-6-(difluoromethoxy)-5-fluoro-1-(propan-2-yl)-1H-indol-2-yl]-N-[(2S)-1,1,1-trifluoropropan-2-yl]pyridine-3-sulfonamide], the melting point fell in the range of 184 to 188 °C. In data set [1], the IC50 was < 500 nM.

Regarding `N#Cc1ccc2c(C#N)c(-c3ncc(S(=O)(=O)NC(CF)CF)cn3)n(C3CCCC3)c2c1` [compound 469, 2-(3,6-dicyano-1-cyclopentyl-1H-indol-2-yl)-N-(1,3-difluoropropan-2-yl)pyrimidine-5-sulfonamide], the melting point was in the range of 246 to 247 °C. Further, the IC50 in data set [1] was in the range of 500 to 2000 nM.

Turning to `CCc1cc2c(cc1F)c(C#N)c(-c1ccc(S(=O)(=O)N[C@@H](C)C(F)(F)F)cn1)n2-c1cccc(C(F)(F)F)c1` [compound 1011, 6-{3-cyano-6-ethyl-5-fluoro-1-[3-(trifluoromethyl)phenyl]-1H-indol-2-yl}-N-[(2S)-1,1,1-trifluoropropan-2-yl]pyridine-3-sulfonamide], the melting point was in the range of 240 to 245 °C. Besides, the IC50 in data set [1] lay within 500 to 2000 nM.

`C[C@@H](NS(=O)(=O)c1ccc(-c2c(C#N)c3cc(F)c(C4CC4)cc3n2C2CCCC2)nc1)C(F)(F)F` [compound 662, 6-(3-cyano-1-cyclopentyl-6-cyclopropyl-5-fluoro-1H-indol-2-yl)-N-[(2R)-1,1,1-trifluoropropan-2-yl]pyridine-3-sulfonamide] displayed a melting point of 180 to 181 °C. In addition, in data set [1], the concentration for half-maximal inhibition (IC50) was < 500 nM.

`Cc1ccc2c(c1)c(C#N)c(-c1ccc(S(=O)(=O)N[C@@H](C)C(F)(F)F)cn1)n2-c1cnccn1` [compound 845, 6-[3-cyano-5-methyl-1-(pyrazin-2-yl)-1H-indol-2-yl]-N-[(2S)-1,1,1-trifluoropropan-2-yl]pyridine-3-sulfonamide]: the melting point lay in the range of 236 to 241 °C. The IC50 in data set [1] is < 500 nM.

`CCc1cc2c(cc1F)c(C#N)c(-c1ccc(S(=O)(=O)NCC3CCC3)cn1)n2-c1ncccn1` [compound 953, 6-[3-cyano-6-ethyl-5-fluoro-1-(pyrimidin-2-yl)-1H-indol-2-yl]-N-(cyclobutylmethyl)pyridine-3-sulfonamide] yielded a melting point of 207 to 214 °C. The IC50 in data set [1] was < 500 nM.

As for `N#Cc1c(-c2ncc(S(=O)(=O)NC(CF)CF)cn2)n(C2CCC2)c2ccc(Cl)cc12` [compound 175, 2-(5-chloro-3-cyano-1-cyclobutyl-1H-indol-2-yl)-N-(1,3-difluoropropan-2-yl)pyrimidine-5-sulfonamide], the melting point fell in the range of 210 to 212 °C. In addition, in data set [1], the IC50 was < 500 nM.

The molecule `CCc1ccc2c(C#N)c(-c3ccc(S(=O)(=O)NC(C)(C)C(F)(F)F)cn3)n(C3CCC3)c2c1` [compound 481, 6-(3-cyano-1-cyclobutyl-6-ethyl-1H-indol-2-yl)-N-(1,1,1-trifluoro-2-methylpropan-2-yl)pyridine-3-sulfonamide] displayed a melting point of 160 to 165 °C. For the same molecule, the IC50 in data set [1] was < 500 nM.

In turn, `CCc1cc(F)c2c(C(N)=O)c(-c3ccc(NS(=O)(=O)C(C)(C)C)nc3)n(-c3ccccc3)c2c1` [compound 1111, 2-{6-[(tert-butylsulfonyl)amino]pyridin-3-yl}-6-ethyl-4-fluoro-1-phenyl-1H-indole-3-carboxamide] had a melting point of 288 to 294 °C. Moreover, in data set [1], the IC50 was < 500 nM.

Regarding `Cc1c(F)cc2c(C#N)c(-c3ccc(S(=O)(=O)NC4(C(F)(F)F)CC4)cn3)n(C3CCCC3)c2c1F` [compound 654, 6-(3-cyano-1-cyclopentyl-5,7-difluoro-6-methyl-1H-indol-2-yl)-N-[1-(trifluoromethyl)cyclopropyl]pyridine-3-sulfonamide], the melting point lay in the range of 241 to 246 °C. Moreover, in data set [1], the IC50 is < 500 nM.

With `Cc1ccc(-n2c(-c3ccc(S(=O)(=O)N[C@@H](C)C(F)(F)F)cn3)c(C#N)c3cc(F)c(C)cc32)s1` [compound 1031, 6-[3-cyano-5-fluoro-6-methyl-1-(5-methylthiophen-2-yl)-1H-indol-2-yl]-N-[(2S)-1,1,1-trifluoropropan-2-yl]pyridine-3-sulfonamide], the melting point lay within 246.8 to 249.4 °C. The IC50 in data set [1] was < 500 nM.

Molecule `CCc1cc2c(cc1F)c(C(N)=O)c(-c1ccc(S(=O)(=O)NC3(C(F)(F)F)CC3)cn1)n2-c1ncccn1` [compound 979, 6-ethyl-5-fluoro-1-(pyrimidin-2-yl)-2-(5-{[1-(trifluoromethyl)cyclopropyl]sulfamoyl}pyridin-2-yl)-1H-indole-3-carboxamide] showed a melting point of 240 to 247 °C. Further, the IC50 in data set [1] was 2000 to 5000 nM.

As for `Cc1ccc2c(c1)c(C#N)c(-c1ccc(S(=O)(=O)NC3(C(F)(F)F)CC3)cn1)n2C1CCC1` [compound 328, 6-(3-cyano-1-cyclobutyl-5-methyl-1H-indol-2-yl)-N-[1-(trifluoromethyl)cyclopropyl]pyridine-3-sulfonamide], the melting point was in the range of 193 to 199 °C. For the same molecule, in data set [1], the IC50 is < 500 nM.

Molecule `Cc1cc(S(=O)(=O)N[C@@H](C)C(F)(F)F)cnc1-c1c(C#N)c2cc(F)c(OC(F)F)cc2n1C1CCC1` [compound 827, 6-[3-cyano-1-cyclobutyl-6-(difluoromethoxy)-5-fluoro-1H-indol-2-yl]-5-methyl-N-[(2S)-1,1,1-trifluoropropan-2-yl]pyridine-3-sulfonamide] came in with a melting point of 150 to 155 °C. The concentration for half-maximal inhibition (IC50) in data set [1] was < 500 nM.

Molecule `N#Cc1c(-c2ccc(NS(=O)(=O)C3CC3)cn2)n(C2CCCCC2)c2ccc(Cl)cc12` [compound 298, N-[6-(5-chloro-3-cyano-1-cyclohexyl-1H-indol-2-yl)pyridin-3-yl]cyclopropanesulfonamide] yielded a melting point of 230 to 235 °C. The IC50 in data set [1] fell in the range of 500 to 2000 nM.

`C[C@@H](NS(=O)(=O)c1ccc(-c2c(C#N)c3ccc(OC(F)(F)F)cc3n2C2CCCCC2)nc1)C(F)(F)F` [compound 304, 6-[3-cyano-1-cyclohexyl-6-(trifluoromethoxy)-1H-indol-2-yl]-N-[(2R)-1,1,1-trifluoropropan-2-yl]pyridine-3-sulfonamide]: the melting point lay within 181 to 183 °C. Moreover, the IC50 in data set [1] was < 500 nM.

As for `CC(C)(C)S(=O)(=O)Nc1ccc(-c2c(C(N)=O)c3cc(F)c(OCF)cc3n2C2CCCCC2)cn1` [compound 1102, 2-{6-[(tert-butylsulfonyl)amino]pyridin-3-yl}-1-cyclohexyl-5-fluoro-6-(fluoromethoxy)-1H-indole-3-carboxamide], the melting point was 274 to 276 °C. In addition, the IC50 in data set [1] was < 500 nM.

The values are drawn from patent US8735414B2 (priority 2009, dated 2014).
